These results are taken from US10513694B2, “Thienopyrrole compounds and uses thereof” (PROMEGA CORPORATION, priority 2015, dated 2019).

By IC50 is commonly meant the concentration at which inhibition is half-maximal.

Like-named read-outs stand apart in the source and are kept apart here.

The experiment has as its target NANOLUC® enzyme (Oplophorus gracilirostris, UniProt Q9GV45, A31E/A60N/A81I/F95D/I117V/K70R/L54V/L99Q/M102K/N193R/P142E/Q151K/Q38R/Q45L/V71I/Y165I). Put plainly: Inhibitor IC50 determination (NANOLUC enzyme, furimazine). It counts as biochemical. The conditions noted are these: 0.4 ng/ml NANOLUC enzyme, final furimazine 10 uM (at Km). As for the experimental part: The following example provides the IC50 values for the compounds disclosed herein. See Table 5 NANOLUC® enzyme was diluted to 0.4 ng/ml in CO2 independent media+10% FBS to make the detection reagent. A 3× dilution series of each inhibitor was then made in the detection reagent. A “no inhibitor” control was also made for each sample. 50 ul of each inhibitor dilution was mixed with 50 ul of NanoGlo buffer containing 20 uM furimazine. (Final furimazine concentration is 10 uM which is at Km.), and luminescence measured. Each sample was normalized to the “no inhibitor” control. The […] values were then determined using GraphPad Prism (log [inhibitor] vs. normalized response).

Chain of NANOLUC® enzyme (Q9GV45 28-196 with tags or gaps with the stated changes limits assumed): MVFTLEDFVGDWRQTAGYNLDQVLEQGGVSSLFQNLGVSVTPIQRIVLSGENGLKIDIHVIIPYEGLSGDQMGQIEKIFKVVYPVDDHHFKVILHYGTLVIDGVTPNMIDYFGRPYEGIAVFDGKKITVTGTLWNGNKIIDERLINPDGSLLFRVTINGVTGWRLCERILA

In turn, `CCN(C(=O)Cn1c(C(=O)N[C@H]2CC[C@H](C(=O)OC)CC2)cc2sccc21)c1cccc(OC)c1` [JRW-0327, Methyl trans-4-(4-(2-(ethyl(3-methoxyphenyl)amino)-2-oxoethyl)-4H-thieno[3,2-b]pyrrole-5-carboxamido)cyclohexane-1-carboxylate] gave an IC50 (IC50 (uM)) of 0.11 µM.

As for `CCN(C(=O)Cn1c(C(=O)N[C@H]2CC[C@H](C(=O)OC)CC2)cc2sccc21)c1ccccc1C` [JRW-0330, Methyl trans-4-(4-(2-(ethyl(o-tolyl)amino)-2-oxoethyl)-4H-thieno[3,2-b]pyrrole-5-carboxamido)cyclohexane-1-carboxylate], 0.7 µM corresponded to half-maximal inhibition (IC50 (uM)) (IC50).

For `COC(=O)[C@H]1CC[C@H](NC(=O)c2cc3sccc3n2CC(=O)N2CCCc3cc(C)ccc32)CC1` [JRW-0331, Methyl trans-4-(4-(2-(6-methyl-3,4-dihydroquinolin-1(2H)-yl)-2-oxoethyl)-4H-thieno[3,2-b]pyrrole-5-carboxamido)cyclohexane-1-carboxylate], the 50% inhibitory concentration (IC50) (IC50 (uM)) was found to be 16.9 µM.

The compound `CCN(C(=O)Cn1c(C(=O)N[C@H]2CC[C@H](C(=O)OC)CC2)cc2sccc21)c1ccc(C)cc1` [JRW-0334, Methyl trans-4-(4-(2-(ethyl(p-tolyl)amino)-2-oxoethyl)-4H-thieno[3,2-b]pyrrole-5-carboxamido)cyclohexane-1-carboxylate] had an IC50 (IC50 (uM)) of 1.3 µM.

`CCN(C(=O)Cn1c(C(=O)N[C@H]2CC[C@H](C(=O)OC)CC2)cc2sccc21)c1ccc(CO)cc1` [JRW-0335, Methyl trans-4-(4-(2-(ethyl(4-(hydroxymethyl)phenyl)amino)-2-oxoethyl)-4H-thieno[3,2-b]pyrrole-5-carboxamido)cyclohexane-1-carboxylate] showed an IC50 (IC50 (uM)) of 1.9 µM.

Consider `CCN(C(=O)Cn1c(C(=O)N[C@H]2CC[C@H](C(=O)OC)CC2)cc2ccccc21)c1cccc(C)c1` [JRW-0355, Methyl trans-4-(1-(2-(ethyl(m-tolyl)amino)-2-oxoethyl)-1H-indole-2-carboxamido)cyclohexane-1-carboxylate], for which the 50% inhibitory concentration (IC50) (IC50 (uM)) came to 0.052 µM.

In turn, `CCN(C(=O)Cn1c(C(=O)N[C@H]2CC[C@H](C(=O)OC)CC2)cc2ccc(OC)cc21)c1cccc(C)c1` [JRW-0359, Methyl trans-4-(1-(2-(ethyl(m-tolyl)amino)-2-oxoethyl)-6-methoxy-1H-indole-2-carboxamido)cyclohexane-1-carboxylate] returned an IC50 (IC50 (uM)) of 3 µM.

Compound `CCN(C(=O)Cn1c(C(=O)N[C@H]2CC[C@H](C(=O)OC)CC2)cc2occc21)c1cccc(C)c1` [JRW-360, Methyl trans-4-(4-(2-(ethyl(m-tolyl)amino)-2-oxoethyl)-4H-furo[3,2-b]pyrrole-5-carboxamido)cyclohexane-1-carboxylate] showed a half-inhibitory concentration (IC50) (IC50 (uM)) of 0.61 µM.

The compound `CCc1cccc(N(CC)C(=O)Cn2c(C(=O)N[C@H]3CC[C@H](C(=O)OC)CC3)cc3ccccc32)c1` [JRW-0424, Methyl trans-4-(1-(2-(ethyl(3-ethylphenyl)amino)-2-oxoethyl)-1H-indole-2-carboxamido)cyclohexane-1-carboxylate] showed a half-inhibitory concentration (IC50) (IC50 (uM)) of 0.005 µM.

Compound `CCc1cccc(N(CC)C(=O)Cn2c(C(=O)N[C@H]3CC[C@H](C(=O)NCCCCCCO)CC3)cc3sccc32)c1` [JRW-0429, 4-(2-(Ethyl(3-ethylphenyl)amino)-2-oxoethyl)-N-(trans-4-((6-hydroxyhexyl)carbamoyl)cyclohexyl)-4H-thieno[3,2-b]pyrrole-5-carboxamide] had an IC50 (IC50 (uM)) of 0.0021 µM.

Under “IC50 (uM)”, `CCc1cccc(N(CC)C(=O)Cn2c(C(=O)N[C@H]3CC[C@H](C(=O)NCCCCCCO)CC3)cc3ccccc32)c1` [JRW-0430, 1-(2-(Ethyl(3-ethylphenyl)amino)-2-oxoethyl)-N-(trans-4-((6-hydroxyhexyl)carbamoyl)cyclohexyl)-1H-indole-2-carboxamide] displayed an IC50 of 0.0021 µM.

In the case of `CCc1cccc(N(CC)C(=O)Cn2c(C(=O)N[C@H]3CC[C@H](C(=O)NCCCCCCS(=O)(=O)O)CC3)cc3sccc32)c1` [JRW-0432, Sodium 6-(trans-4-(4-(2-(ethyl(3-ethylphenyl)amino)-2-oxoethyl)-4H-thieno[3,2-b]pyrrole-5-carboxamido)cyclohexane-1-carboxamido)hexane-1-sulfonate], the IC50 (IC50 (uM)) is 0.0031 µM.

In turn, `CCc1cccc(N(CC)C(=O)Cn2c(C(=O)N[C@H]3CC[C@H](C(=O)NCCCCCCS(=O)(=O)O)CC3)cc3ccccc32)c1` [JRW-0434, Sodium 6-(trans-4-(1-(2-(ethyl(3-ethylphenyl)amino)-2-oxoethyl)-1H-indole-2-carboxamido)cyclohexane-1-carboxamido)hexane-1-sulfonate] came in with an IC50 (IC50 (uM)) of 0.0019 µM.

For the compound `CCN(C(=O)Cn1cccc1C(=O)N[C@H]1CC[C@H](C(=O)OC)CC1)c1cccc(C)c1` [JRW-0456, Methyl trans-4-(1-(2-(ethyl(m-tolyl)amino)-2-oxoethyl)-1H-pyrrole-2-carboxamido)cyclohexane-1-carboxylate], the IC50 (IC50 (uM)) was 7.4 µM.

The compound `CCN(C(=O)Cn1c(C(=O)N[C@H]2CC[C@H](C(=O)OC)CC2)cc2sccc21)c1cccc(C(C)C)c1` [JRW-0460, Methyl trans-4-(4-(2-(ethyl(3-isopropylphenyl)amino)-2-oxoethyl)-4H-thieno[3,2-b]pyrrole-5-carboxamido)cyclohexane-1-carboxylate] had an IC50 (IC50 (uM)) of 0.12 µM.

As for `CCN(C(=O)Cn1c(C(=O)N[C@H]2CC[C@H](C(=O)OC)CC2)cc2sccc21)c1cccc(CO)c1` [JRW-0461, Methyl trans-4-(4-(2-(ethyl(3-(hydroxymethyl)phenyl)amino)-2-oxoethyl)-4H-thieno[3,2-b]pyrrole-5-carboxamido)cyclohexane-1-carboxylate], the IC50 (IC50 (uM)) came out at 0.077 µM.

With `CCN(C(=O)Cn1c(C(=O)N[C@H]2CC[C@H](C(=O)OC)CC2)cc2ccsc21)c1cccc(C)c1` [JRW-0463, Methyl trans-4-(6-(2-(ethyl(m-tolyl)amino)-2-oxoethyl)-6H-thieno[2,3-b]pyrrole-5-carboxamido)cyclohexane-1-carboxylate], the concentration for half-maximal inhibition (IC50) (IC50 (uM)) is 0.71 µM.

For the compound `CCN(C(=O)Cn1c(C(=O)N[C@H]2CC[C@H](C(=O)OC)CC2)cc2sccc21)c1cccc(CBr)c1` [JRW-0466, Methyl trans-4-(4-(2-((3-(bromomethyl)phenyl)(ethyl)amino)-2-oxoethyl)-4H-thieno[3,2-b]pyrrole-5-carboxamido)cyclohexane-1-carboxylate], where the note is “IC50 (uM)”, half-maximal inhibition (IC50) required 0.0018 µM.

`CCN(C(=O)Cn1c(C(=O)N[C@H]2CC[C@H](C(=O)OC)CC2)cc2sccc21)c1cccc(N(C)C)c1` [JRW-0478, Methyl trans-4-(4-(2-((3-(dimethylamino)phenyl)(ethyl)amino)-2-oxoethyl)-4H-thieno[3,2-b]pyrrole-5-carboxamido)cyclohexane-1-carboxylate] displayed a half-inhibitory concentration (IC50) (IC50 (uM)) of 0.065 µM.

Consider `CCN(C(=O)Cn1c(C(=O)N[C@H]2CC[C@H](C(=O)OC)CC2)cc2sccc21)c1cccc(CC(C)C)c1` [JRW-0508, Methyl trans-4-(4-(2-(ethyl(3-isobutylphenyl)amino)-2-oxoethyl)-4H-thieno[3,2-b]pyrrole-5-carboxamido)cyclohexane-1-carboxylate], for which the 50% inhibitory concentration (IC50) (IC50 (uM)) was found to be 0.027 µM.

“N-(trans-4-((6-(3′,6′-dihydroxy-3-oxo-3H-spiro[isobenzofuran-1,9′-xanthene]-5(6)-carboxamido)hexyl)carbamoyl)cyclohexyl)-4-(2-(ethyl(m-tolyl)amino)-2-oxoethyl)-4H-thieno[3,2-b]pyrrole-5-carboxamide [JRW-0200]”: the IC50 (read-out: IC50) worked out at 0.078 µM.
